Data reported in PubChem BioAssay (NCI).
“And” between values parts separate entries of the source, which are not always exact repeats. Identical values can stand only once.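 These data come from cells grown in 96-well plates and exposed to compound for 48 hours at five concentrations. GI50: concentration for 50% inhibition of growth. TGI: concentration producing complete growth inhibition.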

Key:
Assay in all cases: NCI tumour cell line growth inhibition, 48 h
NCI-H226 lung = system: NCI-H226 lung
OVCAR-3 ovarian = system: OVCAR-3 ovarian
MALME-3M melanoma = system: MALME-3M melanoma
OVCAR-4 ovarian = system: OVCAR-4 ovarian
XF 498 CNS = system: XF 498 CNS
DMS 114 small cell lung = system: DMS 114 small cell lung
CAKI-1 renal = system: CAKI-1 renal
HL-60(TB) leukemia = system: HL-60(TB) leukemia
NCI-H522 lung = system: NCI-H522 lung
NCI/ADR-RES ovarian = system: NCI/ADR-RES ovarian

| Compound | TGI (NCI-H226 lung) [µM] | TGI (OVCAR-3 ovarian) | TGI (MALME-3M melanoma) [µM] | TGI (OVCAR-4 ovarian) [µM] | TGI (XF 498 CNS) [µM] | TGI (DMS 114 small cell lung) [µM] | TGI (CAKI-1 renal) [µM] | TGI (HL-60(TB) leukemia) | TGI (NCI-H522 lung) [µM] | TGI (NCI/ADR-RES ovarian) [µM] | GI50 (HL-60(TB) leukemia) [µM] | GI50 (NCI-H226 lung) [µM] | GI50 (NCI-H522 lung) [µM] | GI50 (OVCAR-3 ovarian) [µM] | GI50 (MALME-3M melanoma) [µM] | GI50 (OVCAR-4 ovarian) [µM] | GI50 (XF 498 CNS) [µM] | GI50 (DMS 114 small cell lung) [µM] | GI50 (CAKI-1 renal) [µM] | GI50 (NCI/ADR-RES ovarian) [µM] |
| --- | --- | --- | --- | --- | --- | --- | --- | --- | --- | --- | --- | --- | --- | --- | --- | --- | --- | --- | --- | --- |
| COc1cccc(NC(=O)CC(=O)N2N=C(N3c4ccccc4Sc4ccccc43)CC2c2ccccc2)c1 (centres undefined) | > 100 | > 100 µM | > 100 | > 100 | > 100 | > 100 | > 100 | – | – | – | – | – | – | – | – | – | – | – | – | – |
| CCCN(CCC)C(=O)C(=O)c1c(N)[nH]n(-c2ccccc2)c1=O | > 100 | > 100 µM | > 100 | > 100 | > 100 | > 100 | > 100 | > 100 µM | > 100 | – | – | – | – | – | – | – | – | – | – | – |
| CCOC(=O)/C(O)=C(/C(=O)OC)c1ccc(Cl)cc1 | – | > 100 µM | > 100 | > 100 | > 100 | > 100 | > 100 | – | – | – | – | – | – | – | – | – | – | – | – | – |
| C[C@]12CCC(=O)CC1CCCC2=O (some centres undefined) | – | > 100 µM | > 100 | > 100 | > 100 | > 100 | > 100 | > 100 µM | > 100 | – | – | – | – | – | – | – | – | – | – | – |
| O=C1C(c2cnc3ccccc3n2)=C(O)c2ccccc21 | > 100 | > 100 µM | > 100 | > 100 | – | > 100 | > 100 | > 88.5 µM | > 100 | > 100 | – | – | – | – | – | – | – | – | – | – |
| C[CH2][Sn]([CH2]C)([O]C(=O)c1ccccc1F)[O][Sn]([CH2]C)([CH2]C)[O]C(=O)c1ccccc1F | 37.6 | > 56.3 µM | 30.4 | > 82.8 | 29.9 | 30 | 27.7 | > 75.7 µM | 2.61 | – | 43.3 | 20.2 | 1.24 | > 42 | 14.9 | > 51.7 | 16.1 | 15.8 | 14.2 | – |
| O=S(=O)(/C=C/CS(=O)(=O)c1ccccc1)c1ccccc1 | 61.9 | 84.7 µM | > 100 | > 100 | 62.6 | 52 | – | 37.9 µM | – | – | – | – | – | – | – | – | – | – | – | – |
| O=C1/C(=N\O)S(=O)(=O)c2ccccc21 | > 100 | – | > 100 | > 100 | – | > 100 | > 100 | > 100 µM | > 100 | – | – | – | – | – | – | – | – | – | – | – |
| O=c1c(O)c(-c2ccc(O)c(O)c2)oc2cc(O)cc(O)c12 | 68.5 | 49.2 µM and > 100 µM | > 100 | > 100 | > 100 | > 100 | > 100 | 65.3 µM and 47.8 µM | > 100 | 63.8 | 10.9 | 16.3 | 5.54 | 16 | 62 | 33.3 | – | – | 20.4 | 12.8 |
| CC1(C)CC2CC(CC(C)(C)C2=O)C1=O | – | > 100 µM | > 100 | > 100 | > 100 | > 100 | > 100 | > 100 µM | – | – | – | – | – | – | – | – | – | – | – | – |
| CNC(=O)OCc1c2ccncc2c(C)c2c1[nH]c1ccc(OC)cc12 | 0.784 | > 100 µM | 1.87 | 1.13 | > 100 | 1.32 | > 100 | 0.623 µM | 1.13 | – | – | – | – | – | – | – | – | – | – | – |
| O=C(NC(=Nc1ccccc1)SCCSC(=Nc1ccccc1)NC(=O)c1cccs1)c1cccs1 | > 100 | > 100 µM | > 100 | > 100 | > 100 | > 100 | > 100 | – | 63.6 | – | – | – | – | – | – | – | – | – | – | – |
| O=C(N/C(=C\c1ccc(/C=C(\NC(=O)c2ccccc2)c2nc3ccccc3[nH]2)cc1)c1nc2ccccc2[nH]1)c1ccccc1 | – | > 100 µM | > 100 | > 100 | > 100 | > 100 | > 100 | – | > 100 | – | – | – | – | – | – | – | – | – | – | – |
| COc1ccc(COC2CC(OC)OC(C)C2OC(=O)c2ccccc2)cc1 (centres undefined) | 65.9 | > 95 µM | > 71.3 | > 100 | 49.4 | 81.5 | > 100 | 49.7 µM | > 93.5 | – | – | – | – | – | – | – | – | – | – | – |
